The source of these data is patent US10407422B2, “Triazolopyridine inhibitors of myeloperoxidase” (priority 2015, dated 2019).

pIC50: −log10 of the molar value.

The target in experiment [1] is T1, myeloperoxidase (MPO) (Homo sapiens (Human), UniProt P05164). The experiment in a line: MPO peroxidation assay (Amplex Red assay). The settings on record: potency range class. The format is biochemical. Here is the method: MPO Peroxidation Assay (Amplex Red Assay) MPO peroxidation activity was measured in 100 mM KPi (pH 7.4) by utilizing the non-fluorescent reagent Amplex Red (Invitrogen Cat. #A12222) which can be oxidized to the highly fluorescent resorufin. Amplex Red is oxidized by the peroxidase action of MPO to resorufin. Reactions were carried out in 50 μL total volume by adding a 25 μL mixture of 200 pM myeloperoxidase and 40 nM H2O2(Sigma #349887) to 100 nL inhibitor in 100% DMSO in a 384 well Perkin Elmer Optiplate. Enzyme and compound were preincubated for ten minutes at room temperature. After the ten minute preincubation, 25 μL of an Amplex Red mixture containing 200 μM Amplex Red and 10 mM H2O2 was added to the plate. Kinetic determinations were carried out immediately on a Perkin Elmer Envision (15 minute kinetic read, Ex: 535 nm, Em: 590 nm). IC50 values were calculated by determining the slope of the linear portion of the kinetic trace (180-540 secs), and using that calculated slope to determine % inhibition occurring at each concentration of inhibitor using the following equation: [formula] where A=minimal Y value (activity level of inhibited sample), B=maximal Y value (activity level of uninhibited sample), C=Log IC50, D=Hill Slope, x=concentration of inhibitor. MPO Chlorination Assay (APF Assay)

For experiment [2], the target named is T1, myeloperoxidase (MPO). The experiment in a line: MPO chlorination assay (APF assay). The format is biochemical. The settings on record: potency range class. As for the experimental part: [formula] where A=minimal Y value (activity level of inhibited sample), B=maximal Y value (activity level of uninhibited sample), C=Log IC50, D=Hill Slope, x=concentration of inhibitor. MPO Chlorination Assay (APF Assay) MPO chlorination activity was measured in 100 mM KPi (pH 7.4) by utilizing the non-fluorescent reagent Aminophenyl fluorescein (APF, Invitrogen Cat. #A36003). APF is cleaved by (—OCl) to yield the fluorescent compound fluorescein. Reactions were carried out in 50 μL total volume by adding a 25 μL mixture of 200 pM myeloperoxidase and 120 mM NaCl to 100 nL inhibitor in 100% DMSO in a 384 well, non-binding surface clear bottom plate (Corning #3655). Enzyme, inhibitor, and chloride were preincubated for ten minutes at room temperature. After the ten minute preincubation, 25 μL of an APF mixture containing […], 120 mM NaCl and 10 μM H2O2 was added to the plate using the internal dispensing system of a Hammatsu FDSS 6000. Kinetic determinations were carried out immediately on the FDSS 6000 (3 minute kinetic read, 1 read every second, ex: 485 nm, em: 535 nm). IC50 values for inhibitors were calculated by taking the slope of the linear portion of the kinetic measurement (20 seconds to ˜80-120 secs). IC50 values were calculated by determining the slope of the linear portion of the kinetic trace […], and using that calculated slope to determine % inhibition occurring at each concentration of inhibitor using the following equation: [formula] where A=minimal Y value (activity level of inhibited sample), B=maximal Y value (activity level of uninhibited sample), C=Log IC50, D=Hill Slope, x=concentration of inhibitor. EPX Bromination Assay

T1 sequence (P05164 49-745): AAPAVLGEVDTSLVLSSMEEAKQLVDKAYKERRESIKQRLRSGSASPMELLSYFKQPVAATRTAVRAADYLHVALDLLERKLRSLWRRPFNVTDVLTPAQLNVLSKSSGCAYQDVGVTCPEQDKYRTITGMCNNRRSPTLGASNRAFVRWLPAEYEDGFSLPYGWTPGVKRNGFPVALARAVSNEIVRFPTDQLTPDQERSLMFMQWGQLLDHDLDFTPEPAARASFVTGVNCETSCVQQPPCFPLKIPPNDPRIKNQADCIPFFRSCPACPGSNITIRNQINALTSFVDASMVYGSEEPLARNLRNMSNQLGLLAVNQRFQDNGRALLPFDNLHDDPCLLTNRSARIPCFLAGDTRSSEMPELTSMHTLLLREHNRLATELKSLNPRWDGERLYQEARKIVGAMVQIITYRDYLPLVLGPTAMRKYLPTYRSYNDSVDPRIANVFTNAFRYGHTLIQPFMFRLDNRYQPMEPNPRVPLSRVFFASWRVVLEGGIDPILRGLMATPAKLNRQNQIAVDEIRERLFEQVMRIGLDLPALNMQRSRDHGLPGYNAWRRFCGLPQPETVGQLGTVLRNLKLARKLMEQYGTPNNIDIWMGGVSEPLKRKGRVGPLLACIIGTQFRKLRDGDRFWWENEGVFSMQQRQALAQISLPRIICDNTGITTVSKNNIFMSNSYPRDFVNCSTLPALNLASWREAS

One may read the pIC50 as −log10 of the IC50, conventionally taken in molar units. Read a high pIC50 as a low IC50. As to `Nc1cc(Cc2cnn(Cc3ccc(-n4cccn4)cc3)c2)c2nn[nH]c2n1` [Example 56, 7-[(1-{[4-(1H-Pyrazol-1-yl)phenyl]methyl}-1H-pyrazol-4-yl)methyl]-3H-[1,2,3]triazolo[4,5-b]pyridin-5-amine], the pIC50 on myeloperoxidase (MPO) [1] was 7.00 to 9.00; on myeloperoxidase (MPO) [2], 6.00 to 7.00.
As to `Nc1cc(Cc2cnn(Cc3ccccc3Cl)c2)c2nn[nH]c2n1` [Example 57, 7-((1-(2-Chlorobenzyl)-1H-pyrazol-4-yl)methyl)-3H-[1,2,3]triazolo[4,5-b]pyridin-5-amine], the pIC50 at myeloperoxidase (MPO) [1] and against myeloperoxidase (MPO) [2] was 7.00 to 9.00 each time.
`Cc1nc(-c2cccc(Cn3cc(Cc4cc(N)nc5[nH]nnc45)cn3)c2)no1` [Example 59, 7-((1-(3-(5-Methyl-1,2,4-oxadiazol-3-yl)benzyl)-1H-pyrazol-4-yl)methyl)-3H-[1,2,3]triazolo[4,5-b]pyridin-5-amine]: the results for the pIC50 against myeloperoxidase (MPO) [1] and against myeloperoxidase (MPO) [2] were 7.00 to 9.00 and 6.00 to 7.00, respectively.
`Nc1cc(Cc2cnn(Cc3cccc(OC(F)(F)F)c3)c2)c2nn[nH]c2n1` [Example 60, 7-((1-(3-(Trifluoromethoxy)benzyl)-1H-pyrazol-4-yl)methyl)-3H-[1,2,3]triazolo[4,5-b]pyridin-5-amine]: the pIC50 against myeloperoxidase (MPO) [1] and against myeloperoxidase (MPO) [2] was 7.00 to 9.00 in each case.
With `Nc1cc(Cc2cnn(Cc3cccc(OC(F)F)c3)c2)c2nn[nH]c2n1` [Example 61, 7-((1-(3-(Difluoromethoxy)benzyl)-1H-pyrazol-4-yl)methyl)-3H-[1,2,3]triazolo[4,5-b]pyridin-5-amine], the negative logarithm of the IC50 (pIC50) against myeloperoxidase (MPO) [1] and against myeloperoxidase (MPO) [2] was 7.00 to 9.00 in each case.
With `Nc1cc(Cc2cnn(Cc3cccc(C(F)(F)F)c3)c2)c2nn[nH]c2n1` [Example 62, 7-((1-(3-(Trifluoromethyl)benzyl)-1H-pyrazol-4-yl)methyl)-3H-[1,2,3]triazolo[4,5-b]pyridin-5-amine], the pIC50 on myeloperoxidase (MPO) [1] is 7.00 to 9.00; against myeloperoxidase (MPO) [2], 6.00 to 7.00.
Regarding `Nc1cc(Cc2cnn(Cc3ccc(CO)cc3)c2)c2nn[nH]c2n1` [Example 64, (4-((4-((5-Amino-3H-[1,2,3]triazolo[4,5-b]pyridin-7-yl)methyl)-1H-pyrazol-1-yl)methyl)phenyl)methanol], the pIC50 on myeloperoxidase (MPO) [1] is 7.00 to 9.00; against myeloperoxidase (MPO) [2], 6.00 to 7.00.
Consider `Nc1cc(Cc2cnn(CC3CCN(C(=O)OCc4ccccc4)CC3)c2)c2nn[nH]c2n1` [Example 65, Benzyl 4-((4-((5-amino-3H-[1,2,3]triazolo[4,5-b]pyridin-7-yl)methyl)-1H-pyrazol-1-yl)methyl)piperidine-1-carboxylate], for which the pIC50 against myeloperoxidase (MPO) [1] and against myeloperoxidase (MPO) [2] was 6.00 to 7.00 throughout.
`Nc1cc(Cc2cnn(C3CCNC3)c2)c2nn[nH]c2n1` (stereo not shown) [Example 66, 7-((1-(Pyrrolidin-3-yl)-1H-pyrazol-4-yl)methyl)-3H-[1,2,3]triazolo[4,5-b]pyridin-5-amine]: the pIC50 against myeloperoxidase (MPO) [1] and against myeloperoxidase (MPO) [2] was 6.00 to 7.00 throughout.
With `Nc1cc(Cc2cnn(Cc3cccc(Cc4ccccc4)c3)c2)c2nn[nH]c2n1` [Example 67, 7-((1-(3-Benzylbenzyl)-1H-pyrazol-4-yl)methyl)-3H-[1,2,3]triazolo[4,5-b]pyridin-5-amine], the pIC50 against myeloperoxidase (MPO) [1] and at myeloperoxidase (MPO) [2] was 7.00 to 9.00 throughout.
Take `Nc1cc(Cc2cnn(Cc3ccc4cc(O)ccc4c3)c2)c2nn[nH]c2n1` [Example 68, 6-((4-((5-Amino-3H-[1,2,3]triazolo[4,5-b]pyridin-7-yl)methyl)-1H-pyrazol-1-yl)methyl)naphthalen-2-ol]: the pIC50 on myeloperoxidase (MPO) [1] is 7.00 to 9.00; at myeloperoxidase (MPO) [2], 6.00 to 7.00.
For the compound `CN(C)CCOc1ccc2cc(Cn3cc(Cc4cc(N)nc5[nH]nnc45)cn3)ccc2c1` [Example 69, 7-((1-((6-(2-(Dimethylamino)ethoxy)naphthalen-2-yl)methyl)-1H-pyrazol-4-yl)methyl)-3H-[1,2,3]triazolo[4,5-b]pyridin-5-amine], the pIC50 is 6.00 to 7.00 on myeloperoxidase (MPO) [1] and 7.00 to 9.00 at myeloperoxidase (MPO) [2].
On to `Cc1cc(Cc2cc(N)nc3[nH]nnc23)no1` [Example 71, 7-[(5-Methyl-1,2-oxazol-3-yl)methyl]-3H-[1,2,3]triazolo[4,5-b]pyridin-5-amine], for which the negative-log IC50 (pIC50) against myeloperoxidase (MPO) [1] and against myeloperoxidase (MPO) [2] was 6.00 to 7.00 throughout.
For `CN(C)CCNC(=O)c1ccc(Cn2cc(Cc3cc(N)nc4[nH]nnc34)cn2)cc1` [Example 72, 4-((4-((5-Amino-3H-[1,2,3]triazolo[4,5-b]pyridin-7-yl)methyl)-1H-pyrazol-1-yl)methyl)-N-(2-(dimethylamino)ethyl)benzamide], the results for the negative logarithm of the IC50 (pIC50) on myeloperoxidase (MPO) [1] and against myeloperoxidase (MPO) [2] were 7.00 to 9.00 and 6.00 to 7.00, respectively.
On the same counts, the results for `Nc1cc(Cc2cnn(Cc3ccc(C(=O)NCc4ncc[nH]4)cc3)c2)c2nn[nH]c2n1` [Example 74, N-((1H-Imidazol-2-yl)methyl)-4-((4-((5-amino-3H-[1,2,3]triazolo[4,5-b]pyridin-7-yl)methyl)-H-pyrazol-1-yl)methyl)benzamide] are 7.00 to 9.00 and 6.00 to 7.00.
On the same counts, the results for `Nc1cc(Cc2cnn(Cc3ccc(C(=O)NCCN4CCOCC4)cc3)c2)c2nn[nH]c2n1` [Example 75, 4-{[4-({5-Amino-3H-[1,2,3]triazolo[4,5-b]pyridin-7-yl}methyl)-1H-pyrazol-1-yl]methyl}-N-[2-(morpholin-4-yl)ethyl]benzamide] are 6.00 to 7.00 and 6.00 to 7.00.
In the case of `Nc1cc(Cc2cnn(Cc3ccc(C(=O)NCCO)cc3)c2)c2nn[nH]c2n1` [Example 76, 4-{[4-({5-Amino-3H-[1,2,3]triazolo[4,5-b]pyridin-7-yl}methyl)-1H-pyrazol-1-yl]methyl}-N-(2-hydroxyethyl)benzamide], the pIC50 at myeloperoxidase (MPO) [1] is 7.00 to 9.00; against myeloperoxidase (MPO) [2], 6.00 to 7.00.
As for `CN(C)CCN(C)C(=O)c1ccc(Cn2cc(Cc3cc(N)nc4[nH]nnc34)cn2)cc1` [Example 77, 4-{[4-({5-Amino-3H-[1,2,3]triazolo[4,5-b]pyridin-7-yl}methyl)-1H-pyrazol-1-yl]methyl}-N-[2-(dimethylamino)ethyl]-N-methylbenzamide], the negative logarithm of the IC50 (pIC50) against myeloperoxidase (MPO) [1] was 7.00 to 9.00; on myeloperoxidase (MPO) [2], 6.00 to 7.00.
With `Nc1cc(Cc2cnn(Cc3ccc(C(=O)NCc4ccn[nH]4)cc3)c2)c2nn[nH]c2n1` [Example 78, 4-{[4-({5-Amino-3H-[1,2,3]triazolo[4,5-b]pyridin-7-yl}methyl)-1H-pyrazol-1-yl]methyl}-N-(1H-pyrazol-5-ylmethyl)benzamide], the negative-log IC50 (pIC50) was 7.00 to 9.00 against myeloperoxidase (MPO) [1] and 6.00 to 7.00 against myeloperoxidase (MPO) [2].
In the same order, the values of `Nc1cc(Cc2cnn(Cc3ccc(C(=O)NCc4cn[nH]c4)cc3)c2)c2nn[nH]c2n1` [Example 79, 4-{[4-({5-Amino-3H-[1,2,3]triazolo[4,5-b]pyridin-7-yl}methyl)-1H-pyrazol-1-yl]methyl}-N-(1H-pyrazol-4-ylmethyl)benzamide] are 7.00 to 9.00 and 6.00 to 7.00.
On the same counts, the results for `Nc1cc(Cc2cnn(Cc3ccc(C(=O)NCc4ccccn4)cc3)c2)c2nn[nH]c2n1` [Example 80, 4-{[4-({5-Amino-3H-[1,2,3]triazolo[4,5-b]pyridin-7-yl}methyl)-1H-pyrazol-1-yl]methyl}-N-(pyridin-2-ylmethyl)benzamide] are 7.00 to 9.00 and 6.00 to 7.00.
On the same counts, the results for `Nc1cc(Cc2cnn(Cc3ccc(C(=O)NCc4ncn[nH]4)cc3)c2)c2nn[nH]c2n1` [Example 81, 4-{[4-({5-Amino-3H-[1,2,3]triazolo[4,5-b]pyridin-7-yl}methyl)-1H-pyrazol-1-yl]methyl}-N-(1H-1,2,4-triazol-5-ylmethyl)benzamide] are 7.00 to 9.00 and 6.00 to 7.00.
For the compound `CN(Cc1ncc[nH]1)C(=O)c1ccc(Cn2cc(Cc3cc(N)nc4[nH]nnc34)cn2)cc1` [Example 82, 4-{[4-({5-Amino-3H-[1,2,3]triazolo[4,5-b]pyridin-7-yl}methyl)-1H-pyrazol-1-yl]methyl}-N-(1H-imidazol-2-ylmethyl)-N-methylbenzamide], the pIC50 against myeloperoxidase (MPO) [1] is 7.00 to 9.00; at myeloperoxidase (MPO) [2], 6.00 to 7.00.
